Reference: patent US6177253A, “Screening methods for the identification of anti-HIV compounds employing a cyclosporine-specific monoclonal antibody that cross-reacts with HIV-1 p24” (priority 1998, dated 2001)

What was measured:
Assay type in all cases: binding, BALB/c mice
B11 1.4 = experiment: ELISA inhibition by singly modified Cs-derivatives, McAb B11 1.4; details: group IV; D-Lys^8 -Cs-BSA coating
Description: (§1) A second ELISA Procedure used conjugates of D-Lys^8 -Cs-BSA and Thr^2 -Cs-BSA for coating (Queeniaux et al., 1987b). An indirect detection system consisting of rabbit anti-mouse Ig followed by alkaline phosphates-conjugated goat anti-rabbit IgG was performed as previously described (Queenlaux et al., 1987b).
(§2) The binding of the 22 McAbs to these two Cs-BSA conjugates was also found to correlate well with their fine specificity patterns, as characterized with a set of 28-36 Cs derivatives. Typical ELISA curves showing McAb binding either to D-Lys^8 -Cs-BSA (panel A) or to Thr^2 -Ca-BSA (panel B) and inhibited by Cs or Cs derivatives are shown in FIGS. 8A-8B, D-Lys^8 -Cs-BSA was subsequently used for coating in the inhibition experiments, except for those McAbs binding selectively to Thr^2 -Cs-BSA (see Table 4 and FIGS. 7A-7C). An example of the binding of 26 Cs derivatives by McAbs belonging to each of the five specificity groups mentioned above is reported in Table 5. The results are expressed as the difference of IC50 (in log10) between the Cs derivatives and Cs. All Cs-derivatives used in this study were selected for having a conserved peptide ring conformation compared with CsA (as determined in NMR or X-ray diffraction).

H4 1.3 = experiment: ELISA inhibition by singly modified Cs-derivatives, McAb H4 1.3; details: group II; D-Lys^8 -Cs-BSA coating
Description: as §1, §2

C4 2.2 = experiment: ELISA inhibition by singly modified Cs-derivatives, McAb C4 2.2; details: group V; McAb binds selectively to Thr^2 -Cs-BSA coating
Description: as §1, §2

H6 1.5 = experiment: ELISA inhibition by singly modified Cs-derivatives, McAb H6 1.5; details: group III; D-Lys^8 -Cs-BSA coating
Description: as §1, §2

G7 1.1 = experiment: ELISA inhibition by singly modified Cs-derivatives, McAb G7 1.1; details: group I; McAb binds selectively to Thr^2 -Cs-BSA coating
Description: as §1, §2

Compound: C/C=C/C[C@@H](C)[C@@H](O)[C@H]1C(=O)N[C@@H](CC)C(=O)N(C)CC(=O)N(C)[C@@H](Cc2ccccc2)C(=O)N[C@@H](C(C)C)C(=O)N(C)[C@@H](CC(C)C)C(=O)N[C@@H](C)C(=O)N[C@H](C)C(=O)N(C)[C@@H](CC(C)C)C(=O)N(C)[C@@H](CC(C)C)C(=O)N(C)[C@@H](C(C)C)C(=O)N1C [MeLeu^4 MePhe]
- log10 difference in the concentrations of Cs-derivatives and unmodified Cs required to achieve 50% inhibition in ELISA, McAb B11 1.4 (B11 1.4): 0.2 log10
- log10 difference in the concentrations of Cs-derivatives and unmodified Cs required to achieve 50% inhibition in ELISA, McAb H4 1.3 (H4 1.3): 0.7 log10
- log10 difference in the concentrations of Cs-derivatives and unmodified Cs required to achieve 50% inhibition in ELISA, McAb C4 2.2 (C4 2.2): 0.0 log10
- log10 difference in the concentrations of Cs-derivatives and unmodified Cs required to achieve 50% inhibition in ELISA, McAb H6 1.5 (H6 1.5): 2.3 log10
- log10 difference in the concentrations of Cs-derivatives and unmodified Cs required to achieve 50% inhibition in ELISA, McAb G7 1.1 (G7 1.1): < 0.0 log10

Compound: C/C=C/C[C@@H](C)[C@@H](O)[C@H]1C(=O)N[C@@H](CC)C(=O)N(C)CC(=O)N(C)[C@@H](CC(C)C)C(=O)N[C@@H](C(C)C)C(=O)N(C)[C@@H](CC(C)C)C(=O)N[C@@H](C)C(=O)N[C@H](C)C(=O)N(C)[C@@H](CC(C)C)C(=O)N(C)[C@@H](CC(C)C)C(=O)N(C)[C@@H]([C@H](C)CC)C(=O)N1C [MeVal^11 aMeIle]
- log10 difference in the concentrations of Cs-derivatives and unmodified Cs required to achieve 50% inhibition in ELISA, McAb B11 1.4 (B11 1.4): < 0.0 log10
- log10 difference in the concentrations of Cs-derivatives and unmodified Cs required to achieve 50% inhibition in ELISA, McAb H4 1.3 (H4 1.3): 0.3 log10
- log10 difference in the concentrations of Cs-derivatives and unmodified Cs required to achieve 50% inhibition in ELISA, McAb C4 2.2 (C4 2.2): 0.0 log10
- log10 difference in the concentrations of Cs-derivatives and unmodified Cs required to achieve 50% inhibition in ELISA, McAb H6 1.5 (H6 1.5): 0.3 log10
- log10 difference in the concentrations of Cs-derivatives and unmodified Cs required to achieve 50% inhibition in ELISA, McAb G7 1.1 (G7 1.1): 0.0 log10

Compound: C/C=C/C[C@@H](C)[C@@H](O)[C@H]1C(=O)N[C@@H]([C@H](C)O)C(=O)N(C)CC(=O)N(C)[C@@H](CC(C)C)C(=O)N[C@@H](C(C)C)C(=O)N(C)[C@@H](CC(C)C)C(=O)N[C@@H](C)C(=O)N[C@H](C)C(=O)N(C)[C@@H](CC(C)C)C(=O)N(C)[C@@H](CC(C)C)C(=O)N(C)[C@@H](C(C)C)C(=O)N1C [Abu^2 aThr]
- log10 difference in the concentrations of Cs-derivatives and unmodified Cs required to achieve 50% inhibition in ELISA, McAb B11 1.4 (B11 1.4): 0.0 log10
- log10 difference in the concentrations of Cs-derivatives and unmodified Cs required to achieve 50% inhibition in ELISA, McAb H4 1.3 (H4 1.3): 1.5 log10
- log10 difference in the concentrations of Cs-derivatives and unmodified Cs required to achieve 50% inhibition in ELISA, McAb C4 2.2 (C4 2.2): 0.3 log10
- log10 difference in the concentrations of Cs-derivatives and unmodified Cs required to achieve 50% inhibition in ELISA, McAb H6 1.5 (H6 1.5): 1.1 log10
- log10 difference in the concentrations of Cs-derivatives and unmodified Cs required to achieve 50% inhibition in ELISA, McAb G7 1.1 (G7 1.1): < 0.0 log10

Compound: C/C=C/C[C@@H](C)[C@@H](O)[C@H]1C(=O)N[C@@H](CC)C(=O)N(C)[C@H](C)C(=O)N(C)[C@@H](CC(C)C)C(=O)N[C@@H](C(C)C)C(=O)N(C)[C@@H](CC(C)C)C(=O)N[C@@H](C)C(=O)N[C@H](C)C(=O)N(C)[C@@H](CC(C)C)C(=O)N(C)[C@@H](CC(C)C)C(=O)N(C)[C@@H](C(C)C)C(=O)N1C [Sar^3 D-MeAla]
- log10 difference in the concentrations of Cs-derivatives and unmodified Cs required to achieve 50% inhibition in ELISA, McAb B11 1.4 (B11 1.4): < 0.0 log10
- log10 difference in the concentrations of Cs-derivatives and unmodified Cs required to achieve 50% inhibition in ELISA, McAb H4 1.3 (H4 1.3): 1.3 log10
- log10 difference in the concentrations of Cs-derivatives and unmodified Cs required to achieve 50% inhibition in ELISA, McAb C4 2.2 (C4 2.2): 1.2 log10
- log10 difference in the concentrations of Cs-derivatives and unmodified Cs required to achieve 50% inhibition in ELISA, McAb H6 1.5 (H6 1.5): 1.4 log10
- log10 difference in the concentrations of Cs-derivatives and unmodified Cs required to achieve 50% inhibition in ELISA, McAb G7 1.1 (G7 1.1): 1.2 log10

Compound: C/C=C/C[C@@H](C)[C@@H](O)[C@H]1C(=O)N[C@@H](C)C(=O)N(C)CC(=O)N(C)[C@@H](CC(C)C)C(=O)N[C@@H](C(C)C)C(=O)N(C)[C@@H](CC(C)C)C(=O)N[C@@H](C)C(=O)N[C@H](C)C(=O)N(C)[C@@H](CC(C)C)C(=O)N(C)[C@@H](CC(C)C)C(=O)N(C)[C@@H](C(C)C)C(=O)N1C [Abu^2 Ala]
- log10 difference in the concentrations of Cs-derivatives and unmodified Cs required to achieve 50% inhibition in ELISA, McAb B11 1.4 (B11 1.4): 0.4 log10
- log10 difference in the concentrations of Cs-derivatives and unmodified Cs required to achieve 50% inhibition in ELISA, McAb C4 2.2 (C4 2.2): 0.1 log10
- log10 difference in the concentrations of Cs-derivatives and unmodified Cs required to achieve 50% inhibition in ELISA, McAb H6 1.5 (H6 1.5): 0.0 log10
- log10 difference in the concentrations of Cs-derivatives and unmodified Cs required to achieve 50% inhibition in ELISA, McAb G7 1.1 (G7 1.1): 0.2 log10
